Reference: patent US9145434B2 (Boehringer Ingelheim International GmbH, priority 2012, dated 2015)

How the values were obtained:
Type in all cases: physicochemical
[1] = physical and chemical stability of the crystalline complex; conditions: under various environmental conditions and during the production of a medicament
[2] = mechanical stability of the crystals (grinding); conditions: allows grinding of the crystals
[3] = tendency to absorb moisture

N#Cc1ccc([C@@H]2O[C@H](CO)[C@@H](O)[C@H](O)[C@H]2O)cc1Cc1ccc(C2CC2)cc1.O=C(O)[C@@H]1CCCN1 [crystalline complex]
physical and chemical stability [1]: high physical and chemical stability
mechanical stability [2]: high mechanical stability
tendency to absorb moisture [3]: does not show a high tendency to absorb moisture
